Measurements taken from patent publication US8877736B2, “Method for treating keloid by administering 3′sialyllactose or 6′sialyllactose as a pharmaceutical or cosmetic” (Benebiosis Co., Ltd., priority 2009, dated 2014).
Entries after “also recorded” stand apart in the source; their conditions may differ.

Columns and labels:
Type in all cases: cell-based
[1] = system: Human keloid fibroblasts (CRL 1762); assay: XTT cell proliferation analysis of keloid fibroblasts; conditions: 1 mM, 0-5 days, compared with negative control (PBS), FIG. 2
Procedure: (§1) Human keloid fibroblasts (CRL 1762) were purchased from ATCC. Medium has the following composition: DMEM (Dulbecco's Modified Eagle's Medium), 4 mM L-glutamine, 100 μg/ml streptomycin, 100 U/ml penicillin and 10% fetal bovine serum. The fibroblasts were incubated at 37° C. in a CO2 incubator under humid atmosphere (5% CO2, 95% air). Medium was replaced every 3-4 days.
The rate of cell proliferation was measured using Roche's Cell Proliferation Kit II (XTT) system. Keloid fibroblasts (KF) were plated at 2.0×10^3 cells/well in a 96-well plate and then treated 3′-SL, 6′-SL and PBS at a concentration of 1 mM, respectively. After 0, 1, 3 and 5 days, KF was incubated with 50 μl/well of XTT (sodium 3′-[1-(phenylaminocarbonyl)-3,4-tetrazolium]-bis(4-methoxy-6-nitro) benzene sulfonic acid hydrate) reagent for 4 hr at 37° C. and the absorbance at 470 nm was measured using a microplate reader. The relative survival rates of groups treated with sialyllactose were calculated with reference to untreated sialyllactose group (i.e., excipient treatment group, 100% survival rate).

[2] = system: RAW 264.7 cells; assay: Cytotoxicity analysis, MTT assay on RAW 264.7 cells; conditions: 0.001, 0.01, 0.1 and 1 mM, 5 days, compared with negative control (PBS), FIGS. 4a-4b
Procedure: Cytotoxicity of sialyllactose to cells other than keloid fibroblasts was analyzed RAW 264.7 cells (TIB-71) were purchased from ATCC. Dulbecco's Modified Eagle's Medium (DMEM) was purchased from JBI and supplemented with 100 U/ml penicillin, 100 μg/ml streptomycin, and 10% fetal bovine serum (FBS). Medium was replaced every 3-4 days. The cells were incubated at 37° C. in a CO2 incubator. For investigation of cell proliferation rate, MTT quantification was performed. RAW 264.7 cells were plated at 2.0×10^3 cells/well in a 96-well plate and 3′-SL or 6′-SL was treated at a concentration of 0.001, 0.01, 0.1, and 1 mM. A negative control group was treated with PBS. After 5 days, the cells were incubated with 500 μg/ml MTT solution for 4 hr at 37° C. […], the absorbance at 540 nm was measured using formazan in diumsulfoxide (DMSO). The relative survival rates of groups treated with sialyllactose were calculated with reference to untreated sialyllactose group (i.e., PBS treatment group, 100% survival rate).

[3] = system: Human keloid fibroblasts (CRL 1762); assay: TUNEL analysis of apoptosis of keloid fibroblasts; conditions: 1 mM, 0-5 days, FIG. 3
Procedure: as §1
Using in situ cell death detection kit (TUNEL, Roche Diagnostics), apoptosis was analyzed and DNA fragmentation in keloid fibroblasts was quantified. A single layer of keloid fibroblasts was cultured directly in a tissue culture flask and then incubated with 1 mM 3′-SL, 6′-SL or PBS. Following 0, 1, 3 and 5 days, the analysis was carried out according to the manufacturer's manual.

[4] = system: Human keloid fibroblasts (CRL 1762); assay: Cell counting of keloid fibroblasts (trypan blue); conditions: 1 mM, up to 12 days, compared with negative control (PBS), FIG. 1
Procedure: as §1
Keloid fibroblasts (KF) were plated at 5×10^4 cells/well in a 6-well plate. 24 hours later, KF was incubated with 1 mM 3′-sialyllactose (3′-SL), 6′-sialyllactose (6′-SL) or excipient (Phosphate buffered saline, PBS). 3′-Sialyllactose (3′-N-Acetylneuraminyl-D-lactose, 3′-Sialyl-D-lactose or α-NeuNAc-(2→3)-β-D-Gal-(1→4)-D-Glc) or 6′-sialyllactose (6′-N-Acetylneuraminyl-lactose, 6′-Sialyl-D-lactose, or α-NeuNAc-(2→6)-β-D-Gal-(1→4)-D-Glc) were purchased from Sigma-Aldrich. After 0, 1, 5, 7, 9, and 12 days, KF was collected using trypsin-EDTA and stained with trypan blue, followed by cell counting using a blood cell counter (C-Chip DHC N15, Incyto).

## CC(=O)N[C@H]1[C@H]([C@H](O)[C@H](O)CO)O[C@@](O[C@H]2[C@@H](O)[C@@H](CO)O[C@@H](O[C@H]3[C@H](O)[C@@H](O)C(O)O[C@@H]3CO)[C@@H]2O)(C(=O)O)C[C@@H]1O (stereo partly drawn) [3′-SL, α-NeuNAc-(2→3)-β-D-Gal-(1→4)-D-Glc]
[1]
  proliferation of keloid fibroblasts (XTT; text says MTT analysis): considerably inhibited
[2]
  proliferation of RAW 264.7 cells (MTT): not affected
[3]
  apoptosis of keloid fibroblasts (TUNEL): induced
[4]
  growth of keloid fibroblasts (cell counting): considerably inhibited

## CC(=O)N[C@H]1[C@H]([C@H](O)[C@H](O)CO)O[C@@](OC[C@H]2O[C@@H](O[C@H]3[C@H](O)[C@@H](O)[C@H](O)O[C@@H]3CO)[C@H](O)[C@@H](O)[C@H]2O)(C(=O)O)C[C@@H]1O [6′-SL, α-NeuNAc-(2→6)-β-D-Gal-(1→4)-D-Glc]
[1]
  proliferation of keloid fibroblasts (XTT; text says MTT analysis): considerably inhibited; also recorded: more significantly inhibited by 6′-SL than the 3′-SL
[2]
  proliferation of RAW 264.7 cells (MTT): not affected
[3]
  apoptosis of keloid fibroblasts (TUNEL): more significantly inhibited by 6′-SL than the 3′-SL
[3]; listed as 6′ SL
  apoptosis of keloid fibroblasts (TUNEL): induced
[4]
  growth of keloid fibroblasts (cell counting): considerably inhibited; also recorded: more significantly inhibited by 6′-SL than the 3′-SL
